# Experimental data: patent US4263316A, “N-(1-Methyl-2-pyrrolidinylmethyl)-2,3-dimethoxy-5-methylsulfamoyl benzamide and its derivatives, methods of preparing them and their application to the treatment of troubles of the lower part of the body” (Societe d'Etudes Scientifiques et Industrielles de l'Ile de …, priority 1978, dated 1981)
# Where two headings read alike, the source gives them in different places.
# Key:
# [1] = Acute toxicity (lethal dose) in Swiss mice, parenteral and oral; conditions: mouse, in vivo
# Experimental: The acute toxicity of the compounds of the invention was determined on Swiss mice parenterally, (intravenously, intraperitoneally, subcutaneously) and orally.
# Measurement of the lethal doses of N-(1-methyl-2-pyrrolidinylmethyl)-2,3-dimethoxy-5-methylsulphamoyl benzamide (compound 1) and its levorotatory isomer (compound 2) gave the following results: […]
# rabbit = assay: Cystomanometry in the anesthetized rabbit; format: in vivo
# Experimental: (§1) A pharmacological study of the compound of the invention which consisted of studying its action on the results of cystomanometry in the rabbit and rat was performed under the following conditions: the animals were anesthesized with pentobarbitol and were given artificial respiration. The left outer jugular vein was catheterized to permit the I.V. injection of the studied product. The bladder was then exteriorized and the two ureters were connected and provided with two catheters, one of which was used to measure the intravesical pressure and the other for the vesical filling.
# (§2) The vesical was filled by perfusion of 0.9% salt water at a constant flow rate of 40 ml/min for the rabbit and 5 ml/min for the rat.
# (§3) The intravesical pressure before perfusion and the perfused water volume were measured.
# (§4) The following parameters were studied: the intravesical pressure before perfusion P1 the intravesical pressure at the time of starting urination P2 […]
# (§5) the volume of salt water perfused the quantity discharged during urination the residual quantity only in the bladder.
# The cystomanometry study was performed under the following conditions: a first perfusion was carried out after stabilising the preparation for 5 minutes a second perfusion was carried out 15 minutes after the first a third perfusion was carried out 5 minutes after the second.
# The study was performed by chronic and acute administration to the rabbit and acute administration to the rat.
# The study of the rabbit was performed in the following manner:
# 10 male rabbits having an average weight of 2500±100 g were used as the control batch for the chronic administration study, 10 male rabbits with an average weight of 2500±100 g were treated every morning for 8 days with N-(1-methyl-2-pyrrolidinylmethyl)-2,3-dimethoxy-5-methylsulphamoyl benzamide intramuscularly injected at a dosage of 10 mg/kg/day. The final injection was carried out 30 minutes before the experiment […]
# for the acute administration study 2 batches of 10 male rabbits with an average weight of 2500±100 g were treated with N-(1-methyl-2-pyrrolidinylmethyl)-2,3-dimethoxy-5-methylsulphamoyl benzamide intravenously administered at doses of 5 and 50 mg/kg.
# For the controls and for all the treated batches the first perfusion is used as a standard for the following perfusions (each animal serving as its own control).
# In the case of the acute administration of N-(1-methyl-2-pyrrolidinylmethyl)-2,3-dimethoxy-5-methylsulphamoyl benzamide to both the rabbit and the rat the product was injected at the end of the first perfusion.
# There was a delay of 15 minutes before the two other perfusions (this was also respected for the controls in order to adhere to the same experimental conditions).
# rat = assay: Cystomanometry in the anesthetized rat; format: in vivo
# Experimental: as §1, §2, §3, §4, §5
# The cystomanometry study was performed under the following conditions: a first perfusion was carried out after stabilising the preparation for 5 minutes a second perfusion was carried out 15 minutes after the first a third perfusion was carried out 5 minutes after the second. […]
# man = assay: Gaseous cystomanometric study in man (cases of serious neurological bladder); format: in vivo
# Experimental: A person suffering from multiple sclerosis suffered from incontinence, pollakisuria and the very frequent need to urinate. The intramuscular injection of two 100 mg ampules of the compound of the invention delayed the need to urinate for a volume of 150 cm^3, compared with 80 cm^3 before treatment.
# A person having psychogenic urinary disorders with incontinence and pollakisuria received two 100 mg ampules of the compound according to the invention by the intramuscular route. They only needed to urinate for a volume of 400 cm^3, compared with 200 cm^3 before treatment. They were able to voluntarily prevent urination for 2 minutes compared with 15 seconds before treatment.
# [2] = test system: cystalgias with clear urine in women; assay: Double blind study in females versus placebo (cystalgias with clear urine); format: in vivo
# Experimental: cystalgias with clear urine in women.
# (§6) 2. To check these impressions, two studies were carried out according to the double blind procedure:
# Due to the absence of a reference product the activity of the present product was compared with a placebo.
# [3] = test system: functional disorders of the lower urinary apparatus of men; assay: Double blind study in males versus lipidosterolic complex extracted from pygeum africanum (prostatism); format: in vivo
# Experimental: functional disorders of the lower urinary apparatus of men and particularly in the case of prostatism
# as §6
# The study was carried out in comparison with the only possible reference product: lipidosterolic complex extracted from pygeum africanum.
# [4] = Clinical tolerance and ease of oral treatment in both indications; format: in vivo, men and women
# Excerpt: For both the above indications, the ease of oral treatment was appreciated and the tolerance was excellent.
# pelvic spasms = assay: Treatment of pelvic spasms on probe after urological gynecological surgery; format: in vivo; conditions: intramuscular or intravenous
# [5] = intravenous, read-out: LD50 I.V.
# [6] = ip, intraperitoneal, read-out: LD50 I.P.
# [7] = sc, subcutaneous, read-out: LD50 S.C.
Compound,"LD50 [1, 5] [mg/kg]","LD50 [1, 6] [mg/kg]","LD50 ([1]; oral, read-out: LD50 P.O.) [mg/kg]","LD50 [1, 7] [mg/kg]",urinary threshold (rabbit; anesthetized rabbit),"significance of differences compared with the controls (rabbit; rabbit, acute I.V. 5 and 50 mg/kg)","variations of the same parameters (ΔP, perfusion volume) (rabbit; rabbit, acute I.V. 5 and 50 mg/kg, second and third perfusions, compared with chronic administration)","decrease of the perfusion volume compared with the controls (rabbit; rabbit, intramuscular, 10 mg/kg/day for 8 days)","reduction of ΔP (P2 - P1) compared with control batch (rabbit; rabbit, intramuscular, 10 mg/kg/day for 8 days, as from the first perfusion)","difference of ΔP compared with the controls at the third perfusion (rabbit; rabbit, intramuscular, 10 mg/kg/day for 8 days, third perfusion)","same phenomena as in the rabbit (ΔP, perfusion volume) (rat; acute I.V. 50 and 100 mg/kg)","urinary volume (rat; second and third perfusions, particularly at I.V. dosage of 50 mg/kg)","vesical tolerance (man; man, two cases of serious neurological bladder)","volume at which need to urinate occurs (man; person, multiple sclerosis, intramuscular, two 100 mg ampules, 80 cm^3 before treatment) [cm^3]","time of voluntary prevention of urination (man; person, psychogenic urinary disorders, intramuscular, two 100 mg ampules, 15 seconds before treatment) [min]","volume at which need to urinate occurs (man; person, psychogenic urinary disorders, intramuscular, two 100 mg ampules, 200 cm^3 before treatment) [cm^3]",superiority over placebo [2],superiority over lipidosterolic complex extracted from pygeum africanum [3],tolerance [4],activity in the treatment of pelvic spasms (pelvic spasms)
"CNS(=O)(=O)c1cc(OC)c(OC)c(C(=O)NCC2CCCN2C)c1 (stereo not drawn) [Compound 1, N-(1-methyl-2-pyrrolidinylmethyl)-2,3-dimethoxy-5-methylsulphamoyl benzamide]",130 to 135,315 to 323,992 to 1050,936 to 960,lowers the urinary threshold,highly significant,Variations in the same direction of the same parameters and in the same proportions,about half,about a third,reduced at the third perfusion,not observed,significant increase,increase in the vesical tolerance,150,2,400,very significant,statistically significant,excellent,remarkably active
"CNS(=O)(=O)c1cc(OC)c(OC)c(C(=O)NCC2CCCN2C)c1 (single isomer, unassigned) [Compound 2, Levorotatory N-(1-methyl-2-pyrrolidinylmethyl)-2,3-dimethoxy-5-methylsulphamoyl benzamide]",90 to 94.6,310 to 336,1080 to 1150,741 to 780,,,,,,,,,,,,,,,,
